Experimental data taken from patent publication US20110190373A1, “METHODS AND COMPOSITIONS FOR THE TREATMENT OR PREVENTION OF PATHOLOGICAL CARDIAC REMODELING AND HEART FAILURE” (UNIVERSITY OF ROCHESTER, priority 2008, published 2011).
Entries after “also recorded” stand apart in the source; their conditions may differ.

Legend:
[1] = tested on: rat neonatal cardiomyocytes; test: PE-induced cardiomyocyte hypertrophy, myocyte (cell) surface area; format: cell-based; conditions: NRVM
Description: (§1) FIGS. 3A-C show the effects of PDE1 inhibitors on pathological cardiomyocyte hypertrophy. Myocyte hypertrophy was induced in NRVM by α-adrenergic agonist, phenylephrine (PE). Hypertrophy was assessed by protein synthesis by measuring [^3H]-leucine incorporation (normalized to the total DNA content), or by myocyte surface area. PDE inhibitor 8-MM-IBMX (at 10 μM the concentration selective to PDE1) blocked PE-induced cardiomyocyte protein synthesis measured by [^3H]-leucine incorporation (FIG. 3A) or measured by myocyte surface area (FIG. 3B).
Effects of PDE1 inhibitor 8-MM-IBMX on PE-stimulated cell hypertrophic growth were measured by cell surface area (FIG. 3B). Rat neonatal cardiomyocytes were treated with either […] or vehicle, followed without (ctrl) or with PE stimulation. Cells were stained for α-actinin (a cardiomyocyte specific marker) to exclude the contamination of cardiac fibroblasts. At lease 100 α-actinin positive cells were analyzed. Cell surface area was measured by Image J program.
Effects of PDE1 inhibitor vinpocetine on PE-stimulated cell hypertrophic growth were measured by cell surface area (FIG. 3C). Rat neonatal cardiomyocytes were treated with either 20 μM Vinpocetine (vinp) or vehicle, followed without (ctrl) or with PE stimulation. Cell surface area was measured as above. Data were normalized to control (vehicle, without PE) that was arbitrarily set to 1.0. Data are means of at least 100 cells (mean±SD). […]
(§2) FIG. 4A illustrates a representative Western blot showing PDE1A protein expression in neonatal cardiomyocytes either not transfected (NT), or transfected with off-targeting control siRNA (1 μg) or rat PDE1A siRNA (0.5 or 1.0 μg) for 72 hours via electroporation. […] Protein synthesis assessed by [^3H]-leucine incorporation (normalized to the total DNA content) in NRVM transfected with 1 μg of control siRNA or PDE1A siRNA followed by PE (50 μmol/L) or vehicle (ctrl) stimulation for 48 hours (FIG. 4B). […] Data were quantified by densitometry in a linear range and normalized to GAPDH mRNA levels. […]

[2] = tested on: rat neonatal cardiomyocytes; test: PE-induced cardiomyocyte hypertrophy, protein synthesis by [3H]-leucine incorporation; format: cell-based; conditions: NRVM
Description: as §1
Rat neonatal cardiomyocytes were cultured in serum-free medium for 24 hours. […] Cells were lysed and ^3H-leucine incorporation in cell lysates were then measured by scintillation counter. […]
as §2

[3] = therapeutic doses, patients; cited from earlier work
[4] = tested on: mouse cardiac hypertrophy; test: Cardiac hypertrophy induced by chronic ISO infusion in mice; format: in vivo; conditions: i.p. 10 mg/kg/d, ISO 30 mg/kg/d for 7 days
Description: FIGS. 5A-F illustrate that Vinpocetine attenuates cardiac hypertrophy in vivo. C57 mice received continuous vehicle (0.002% ascorbic acid in PBS) or ISO (30 mg/kg/d) infusion via osmotic pumps for 7 days, and also received daily DMSO or Vinpocetine treatment (i.p. 10 mg/kg/d). Control group (Con): mice receiving only vehicle infusion for 7 days. ISO group: mice receiving ISO infusion and DMSO treatment for 7 days. ISO+Vinp group: mice receiving ISO infusion and vinpocetine treatment for 7 days. After 7 days, animals were sacrificed and hearts were excised, weighed, frozen in −80° C. for mRNA assay, or fixed in 10% formalin for histology analysis. FIG. 5A are representative gross heart images showing effects of PDE1 inhibitor on cardiac hypertrophy. FIGS. 5B-C are graphs showing the effect of Vinpocetine on heart to body weight ratio or heart weight to tibial length ratio, respectively. […] FIGS. 5E-F are graphs showing the effect of Vinpocetine on ANP and BNP mRNA expression, respectively. Total RNA from left ventricles were subjected to real-time RT-PCR analyses for the mRNA levels of ANP and BNP. Data were normalized to control and sham samples that were arbitrarily set to 1.0. Data represent mean of 4 animals (mean±SEM). **P<0.01 vs. control mice. ##P<0.01 vs. ISO-infused mice without Vinpocetine. […] PDE1 is a well known biological target for Vinpocetine. […] Based on these reasons, the effects of Vinpocetine were tested on cardiomyocyte hypertrophy in vivo.

[5] = 20 μM, α-actinin positive cells

SMILES	PE-induced hypertrophy measured by myocyte surface area ([1]; 10 μM (figure legend))	PE-induced hypertrophy measured by myocyte surface area [1, 5]	PE-induced cardiomyocyte protein synthesis measured by [3H]-leucine incorporation ([2]; 10 μM (figure legend))	PE-induced hypertrophy assessed by protein synthesis with 3H-leucine incorporation ([2]; 20 μmol/L, PE 48 hours, normalized to DNA content)	side effects, toxicity or contraindications [3]	ISO-induced increase in cross-section areas of cardiomyocytes in left ventricles ([4]; H&E staining)	cardiac hypertrophy measured by gross heart morphology ([4]; mouse)	heart weight/body weight (HW/BW) ratio ([4]; mouse)	heart weight/tibia length (HW/TL) ratio ([4]; mouse)	ANP mRNA level in left ventricle ([4]; real-time RT-PCR)	BNP mRNA level in left ventricle ([4]; real-time RT-PCR)
COCc1nc2c([nH]1)c(=O)n(C)c(=O)n2CC(C)C [8-MM-IBMX, 8-methoxymethyl-isobutylmethylxanthine]	blocked	significantly attenuated	blocked	significantly attenuated	–	–	–	–	–	–	–
CCOC(=O)C1=C[C@]2(CC)CCCN3CCc4c(n1c1ccccc41)[C@@H]32 [Vinpocetine, (+)-vinpocetine]	–	significantly reduced; also recorded: significantly blocked	–	–	no reports of significant side effects, toxicity or contraindications	significantly attenuated	significantly reduced	significantly reduced	significantly reduced	significantly decreased	significantly decreased
